From US8399417B2, “Food” (Ajinomoto Co., Inc., priority 2007, dated 2013) come the findings set out here.

Holding throughout (type): in vivo, human
The nature of assay [1]: Fat-like richness and smoothness imparted to low-fat milk, quantitative sensory evaluation test. To be noted: for Taste profile / Fat-like richness / Smoothness: Table 8; for Fat-like richness / Smoothness: n=12, control 0, strong 3, very strong 5 points. Here is the method:
The quantitative sensory evaluation test was performed as follows. Each of γ-Glu-Cys-Gly (glutathione), γ-Glu-Val-Gly, and γ-Glu-Abu-Gly was mixed with commercially-available low-fat milk (non-fat milk solids content: 8.6% or more, milk fat content: 1.5%) at a concentration of 0.00001 to 1 g/dl, and the intensity of imparting fat-like richness was measured.
It should be noted that each peptide was dissolved in low-fat milk, and then a sample, the pH of which was lowered, was adjusted with NaOH so that the pH might be ±0.2 with respect to the pH of the low-fat milk free of peptide.
The sensory score for fat-like richness and smoothness was defined as follows: control (free of peptide): 0 point; strong: 3 points; and very strong: 5 points. Then, the test was performed with n=12. […] As clear from Table 6, it was confirmed that the peptide imparted fat-like richness and smoothness to low-fat milk at a lower concentration than glutathione.
The quantitative sensory evaluation test was performed as follows. Each of γ-Glu-Val-Gly and cinacalcet was mixed with commercially-available low-fat milk (non-fat milk solids content: 8.6% or more, milk fat content: 1.5%) at a concentration of 0.00001 to 1 g/dl, and the intensity of imparting fat-like richness was measured.
It should be noted that each sample was dissolved in low-fat milk, and then a sample, the pH of which was lowered, was adjusted with NaOH so that the pH might be ±0.2 with respect to the pH of the low-fat milk free of a sample.
(§1) The sensory score for fat-like richness and smoothness was defined as follows: control (free of sample): 0 point; strong: 3 points; and very strong: 5 points. Then, the test was performed with n=12.

The nature of assay [2]: Fat-like richness and smoothness imparted to low-calorie mayonnaise, quantitative sensory evaluation test. To be noted: for Taste profile / Fat-like richness / Smoothness: Table 9; for Fat-like richness / Smoothness: control 0, strong 3, very strong 5 points. As to the method: In the same manner as that in Example 1 except that commercially-available low-calorie mayonnaise (having a fat content reduced by 50% compared with a normal product) was used instead of low-fat milk, each peptide was measured for its fat-like richness-imparting intensity.
In the same manner as that in Example 2, each sample was measured for its intensity of imparting fat-like richness.

Assay [3] can be described thus: Fat-like richness and smoothness imparted to low-fat yogurt, quantitative sensory evaluation test. Particulars: Table 10; for Fat-like richness / Smoothness: n=12, control 0, strong 3, very strong 5 points. Here is the method: The quantitative sensory evaluation test was performed as follows. Each of γ-Glu-Val-Gly and cinacalcet was mixed with commercially-available low-fat yogurt (non-fat milk solids content: 10.0%, milk fat content: 1.0%) at a concentration of 0.00001 to 1 g/dl, and the intensity of imparting fat-like richness was measured.
It should be noted that after each sample was dissolved in low-fat yogurt, and a sample, the pH of which was lowered, was adjusted with NaOH so that the pH might be ±0.2 with respect to the pH of the […] free of a sample.
as §1

Setting [4] is: 0.0001 g/dl in low-calorie mayonnaise.
Setting [5] is: 0.001 g/dl in low-calorie mayonnaise.

For the compound `C[C@@H](NCCCc1cccc(C(F)(F)F)c1)c1cccc2ccccc12` [Cinacalcet, (R)—N-(3-(3-(trifluoromethyl)phenyl)propyl)-1-(1-naphthyl)ethylamine, reference compound], the Taste profile entry was “Lasting is present in aftertaste” in assay [1] (0.0001 g/dl in low-fat milk); “Thickness and lasting” in assay [1] (0.001 g/dl in low-fat milk); “Lasting is present in aftertaste” in assay [2] (setting [4]); “Thickness and lasting” in assay [2] (setting [5]); “Lasting is present in aftertaste” in assay [3] (0.0001 g/dl in low-fat yogurt); “Lasting is present in aftertaste” in assay [3] (0.001 g/dl in low-fat yogurt). Also, the Fat-like richness in assay [1] (0.0001 g/dl in low-fat milk) is 1.3 points; in assay [1] (0.001 g/dl in low-fat milk), 4.0 points; in assay [2] (setting [4]), 1.8 points; in assay [2] (setting [5]) it was 4.3 points; in assay [3] (0.0001 g/dl in low-fat yogurt), 1.5 points; in assay [3] (0.001 g/dl in low-fat yogurt (milk fat 1.0%)), 4.0 points. Further, the Smoothness in assay [1] (0.0001 g/dl in low-fat milk) was 1.7 points; in assay [1] (0.001 g/dl in low-fat milk), 4.2 points; in assay [2] (setting [4]) it was 2.5 points; in assay [2] (setting [5]), 4.8 points; in assay [3] (0.0001 g/dl in low-fat yogurt), 2.0 points; in assay [3] (0.001 g/dl in low-fat yogurt), 4.5 points. The “concentration at which fat-like richness and smoothness are imparted, compared with γ-Glu-Val-Gly” value is “comparable concentration to γ-Glu-Val-Gly” in assay [1] (low-fat milk, conclusion from Table 8) and “comparable concentration to γ-Glu-Val-Gly” in assay [2] (low-calorie mayonnaise, conclusion from Table 9).
